Holding throughout (assay): In vitro antibiotic activity, agar dilution method (Mueller-Hinton agar, NCCLS)
Holding throughout (assay type): cell-based

One assay has as its system E. coli ATCC 25922. The conditions noted are these: Escherichia coli, ATCC25922; agar dilution, Mueller-Hinton agar; read-out: MIC for E. coli ATCC 25922. On the procedure:
(§1) To measure the antibiotic activity of the compounds prepared by Examples, antibiotic activity test in vitro was performed by agar dilution method using Mueller-Hinton agar according to the NCCLS (National Committee for Clinical Laboratory Standards. 2000. Methods for dilution antimicrobial susceptibility tests for bacteria that grow aerobiocally. Approved standard, NCCLS document M7-M5, 5th ed, vol 20, no 2. National Committee for Clinical Laboratory Standards, Wayne, Pa.). The test strain was Escherichia coli (ATCC 25922), Klebsiella pneumonia (ATCC 29665) and Pseudomonas aeriginosa (PAO1).
(In general: In agar dilution, organisms are placed on agar that contains the substance at set levels.)

A further assay concerns K. pneumoniae ATCC 29665. The conditions noted are these: Klebsiella pneumoniae, ATCC29665; agar dilution, Mueller-Hinton agar; read-out: MIC for K. pneumoniae ATCC 29665. The protocol: as §1
The test system of a further assay is P. aeruginosa PAO1. The following applies: Pseudomonas aeruginosa, PAO1; agar dilution, Mueller-Hinton agar; read-out: MIC for P. aeruginosa PAO1. The protocol: as §1

SMILES strings stand for the structures. Converted amounts (≈) assume the structure as drawn. Bounds are passed on as bounds.

The term MIC denotes the smallest concentration in the dilution series that meets the test's criterion for growth inhibition.

For the compound `CN(C)CC#CC#Cc1ccc(C2=CCN(CCC(C)(C(=O)NO)S(C)(=O)=O)CC2)cc1F` (stereo not drawn) [Example 45, 4-(4-(4-(5-(dimethylamino)penta-1,3-diyn-1-yl)-3-fluorophenyl)-3,6-dihydropyridin-1(2H)-yl)-N-hydroxy-2-methyl-2-(methylsulfonyl)butanamide], the figures for the MIC with E. coli ATCC 25922, in the assay on K. pneumoniae ATCC 29665 and in the assay on P. aeruginosa PAO1 were < 1 µg/mL, 1 to 8 µg/mL (≈ 2.1 to 16.8 µM) and 1 to 8 µg/mL (≈ 2.1 to 16.8 µM), respectively.

In the case of `CCCC#Cc1ccc(C2=CCN(CCC(C)(C(=O)NO)S(C)(=O)=O)CC2)cc1` (stereo not drawn) [Example 11, N-hydroxy-2-methyl-2-(methylsulfonyl)-4-(4-(4-(pent-1-yn-1-yl)phenyl)-3,6-dihydropyridin-1(2H)-yl)butanamide], the MIC with E. coli ATCC 25922 was < 1 µg/mL; in the assay with K. pneumoniae ATCC 29665, 1 to 8 µg/mL (≈ 2.39 to 19.1 µM); in the assay on P. aeruginosa PAO1 it was 1 to 8 µg/mL (≈ 2.39 to 19.1 µM).

For the compound `CC(CCN1CC=C(c2ccc(C#CCN3CCC[C@H]3CO)cc2)CC1)(C(=O)NO)S(C)(=O)=O` (stereo partly drawn) [Example 17, N-hydroxy-4-(4-(4-(3-((S)-2-(hydroxymethyl)pyrrolidin-1-yl)prop-1-yn-1-yl)phenyl)-3,6-dihydropyridin-1(2H)-yl)-2-methyl-2-(methylsulfonyl)butanamide], the results for the MIC in the assay on E. coli ATCC 25922, in the assay with K. pneumoniae ATCC 29665 and in the assay on P. aeruginosa PAO1 were > 16 µg/mL, 8 to 16 µg/mL (≈ 16.3 to 32.7 µM) and 1 to 8 µg/mL (≈ 2.04 to 16.3 µM), respectively.

In the case of `CC(CCN1CC=C(c2ccc(C#Cc3cccs3)cc2)CC1)(C(=O)NO)S(C)(=O)=O` (stereo not drawn) [Example 34, N-hydroxy-2-methyl-2-(methylsulfonyl)-4-(4-(4-(thiophen-2-ylethynyl)phenyl)-3,6-dihydropyridin-1(2H)-yl)butanamide], the MIC in the assay with E. coli ATCC 25922 is < 1 µg/mL; in the assay with K. pneumoniae ATCC 29665, 1 to 8 µg/mL (≈ 2.18 to 17.4 µM); in the assay on P. aeruginosa PAO1 it was 1 to 8 µg/mL (≈ 2.18 to 17.4 µM).

Turning to `CC(CCN1CC=C(c2ccc(C#CC3CCCCC3)cc2)CC1)(C(=O)NO)S(C)(=O)=O` (stereo not drawn) [Example 10, 4-(4-(4-(cyclohexylethynyl)phenyl)-3,6-dihydropyridin-1(2H)-yl)-N-hydroxy-2-methyl-2-(methylsulfonyl)butanamide], the MIC in the assay with E. coli ATCC 25922 was 1 to 8 µg/mL (≈ 2.18 to 17.4 µM); in the assay on K. pneumoniae ATCC 29665, 8 to 16 µg/mL (≈ 17.4 to 34.9 µM); in the assay on P. aeruginosa PAO1 it was 8 to 16 µg/mL (≈ 17.4 to 34.9 µM).

For the compound `CC(CCN1CC=C(c2ccc(-c3ccc(F)nc3)cc2)CC1)(C(=O)NO)S(C)(=O)=O` (stereo not drawn) [Example 62, 4-(4-(4-(6-fluoropyridin-3-yl)phenyl)-3,6-dihydropyridin-1(2H)-yl)-N-hydroxy-2-methyl-2-(methylsulfonyl)butanamide], the results for the MIC with E. coli ATCC 25922, in the assay on K. pneumoniae ATCC 29665 and in the assay with P. aeruginosa PAO1 were < 1 µg/mL, 1 to 8 µg/mL (≈ 2.23 to 17.9 µM) and 1 to 8 µg/mL (≈ 2.23 to 17.9 µM), respectively.

With `CC(CCN1CC=C(c2ccc(C#CC3CN(S(C)(=O)=O)C3)cc2)CC1)(C(=O)NO)S(C)(=O)=O` (stereo not drawn) [Example 41, N-hydroxy-2-methyl-2-(methylsulfonyl)-4-(4-(4-((1-(methylsulfonyl)azetidin-3-yl)ethynyl)phenyl)-3,6-dihydropyridin-1(2H)-yl)butanamide], the MIC in the assay on E. coli ATCC 25922 is 1 to 8 µg/mL (≈ 1.96 to 15.7 µM); in the assay on K. pneumoniae ATCC 29665 it was 8 to 16 µg/mL (≈ 15.7 to 31.4 µM); in the assay with P. aeruginosa PAO1 it was 8 to 16 µg/mL (≈ 15.7 to 31.4 µM).

Regarding `CC(CCN1CC=C(c2ccc(-c3ccc(S(C)(=O)=O)cc3)cc2)CC1)(C(=O)NO)S(C)(=O)=O` (stereo not drawn) [Example 64, N-hydroxy-2-methyl-2-(methylsulfonyl)-4-(4-(4′-(methylsulfonyl)-[1,1′-biphenyl]-4-yl)-3,6-dihydropyridin-1(2H)-yl)butanamide], the MIC was < 1 µg/mL with E. coli ATCC 25922, 1 to 8 µg/mL (≈ 1.97 to 15.8 µM) in the assay with K. pneumoniae ATCC 29665 and 1 to 8 µg/mL (≈ 1.97 to 15.8 µM) in the assay with P. aeruginosa PAO1.

`CC(CCN1CC=C(c2ccc(C#CC3CCCC3)cc2)CC1)(C(=O)NO)S(C)(=O)=O` (stereo not drawn) [Example 9, 4-(4-(4-(cyclopentylethynyl)phenyl)-3,6-dihydropyridin-1(2H)-yl)-N-hydroxy-2-methyl-2-(methylsulfonyl)butanamide]: the MIC in the assay on E. coli ATCC 25922 was < 1 µg/mL; in the assay with K. pneumoniae ATCC 29665, 1 to 8 µg/mL (≈ 2.25 to 18 µM); in the assay on P. aeruginosa PAO1, > 16 µg/mL.

For the compound `CC(CCN1CC=C(C#Cc2ccc(Br)cc2)CC1)(C(=O)NO)S(C)(=O)=O` (stereo not drawn) [Example 53, 4-(4-((4-bromophenyl)ethynyl)-3,6-dihydropyridin-1(2H)-yl)-N-hydroxy-2-methyl-2-(methylsulfonyl)butanamide], the MIC with E. coli ATCC 25922 was 1 to 8 µg/mL (≈ 2.2 to 17.6 µM); in the assay on K. pneumoniae ATCC 29665 it was 1 to 8 µg/mL (≈ 2.2 to 17.6 µM); in the assay on P. aeruginosa PAO1, > 16 µg/mL.

With `CC(CCN1CC=C(c2ccc(C#CCCCO)cc2)CC1)(C(=O)NO)S(C)(=O)=O` (stereo not drawn) [Example 18, N-hydroxy-4-(4-(4-(5-hydroxypent-1-yn-1-yl)phenyl)-3,6-dihydropyridin-1(2H)-yl)-2-methyl-2-(methylsulfonyl)butanamide], the minimal inhibitory concentration (MIC) was < 1 µg/mL with E. coli ATCC 25922, 1 to 8 µg/mL (≈ 2.3 to 18.4 µM) in the assay on K. pneumoniae ATCC 29665 and 1 to 8 µg/mL (≈ 2.3 to 18.4 µM) in the assay with P. aeruginosa PAO1.

Take `CC(CCN1CC=C(c2ccc(C#CCCCCO)cc2)CC1)(C(=O)NO)S(C)(=O)=O` (stereo not drawn) [Example 29, N-hydroxy-4-(4-(4-(6-hydroxyhex-1-yn-1-yl)phenyl)-3,6-dihydropyridin-1(2H)-yl)-2-methyl-2-(methylsulfonyl)butanamide]: the MIC was < 1 µg/mL in the assay with E. coli ATCC 25922, 1 to 8 µg/mL (≈ 2.23 to 17.8 µM) with K. pneumoniae ATCC 29665 and 1 to 8 µg/mL (≈ 2.23 to 17.8 µM) in the assay on P. aeruginosa PAO1.

Take `CC(CCN1CC=C(c2ccc(-c3ccccc3)cc2)CC1)(C(=O)NO)S(C)(=O)=O` (stereo not drawn) [Example 56, 4-(4-([1,1′-biphenyl]-4-yl)-3,6-dihydropyridin-1(2H)-yl)-N-hydroxy-2-methyl-2-(methylsulfonyl)butanamide]: the MIC in the assay on E. coli ATCC 25922 is < 1 µg/mL; with K. pneumoniae ATCC 29665, < 1 µg/mL; in the assay on P. aeruginosa PAO1, 8 to 16 µg/mL (≈ 18.7 to 37.3 µM).

As for `COCCCC#Cc1ccc(C2=CCN(CCC(C)(C(=O)NO)S(C)(=O)=O)CC2)cc1` (stereo not drawn) [Example 28, N-hydroxy-4-(4-(4-(5-methoxypent-1-yn-1-yl)phenyl)-3,6-dihydropyridin-1(2H)-yl)-2-methyl-2-(methylsulfonyl)butanamide], the MIC is < 1 µg/mL in the assay with E. coli ATCC 25922, < 1 µg/mL in the assay with K. pneumoniae ATCC 29665 and 1 to 8 µg/mL (≈ 2.23 to 17.8 µM) in the assay with P. aeruginosa PAO1.

As to `CC(CCN1CC=C(c2ccc(C#CCN3CCCC3)cc2)CC1)(C(=O)NO)S(C)(=O)=O` (stereo not drawn) [Example 15, N-hydroxy-2-methyl-2-(methylsulfonyl)-4-(4-(4-(3-(pyrrolidin-1-yl)prop-1-yn-1-yl)phenyl)-3,6-dihydropyridin-1(2H)-yl)butanamide], the figures for the minimum inhibitory concentration (MIC) in the assay on E. coli ATCC 25922, in the assay with K. pneumoniae ATCC 29665 and with P. aeruginosa PAO1 were 1 to 8 µg/mL (≈ 2.18 to 17.4 µM), 8 to 16 µg/mL (≈ 17.4 to 34.8 µM) and 1 to 8 µg/mL (≈ 2.18 to 17.4 µM), respectively.

For the compound `CC(CCN1CC=C(c2ccc(C#CC#CCCCO)c(F)c2)CC1)(C(=O)NO)S(C)(=O)=O` (stereo not drawn) [Example 42, 4-(4-(3-fluoro-4-(7-hydroxyhepta-1,3-diyn-1-yl)phenyl)-3,6-dihydropyridin-1(2H)-yl)-N-hydroxy-2-methyl-2-(methylsulfonyl)butanamide], the figures for the MIC with E. coli ATCC 25922, in the assay with K. pneumoniae ATCC 29665 and in the assay on P. aeruginosa PAO1 were < 1 µg/mL, 1 to 8 µg/mL (≈ 2.1 to 16.8 µM) and 1 to 8 µg/mL (≈ 2.1 to 16.8 µM), respectively.

Take `CC(CCN1CC=C(c2ccc(-c3ccsc3)cc2)CC1)(C(=O)NO)S(C)(=O)=O` (stereo not drawn) [Example 70, N-hydroxy-2-methyl-2-(methylsulfonyl)-4-(4-(4-(thiophen-3-yl)phenyl)-3,6-dihydropyridin-1(2H)-yl)butanamide]: the MIC with E. coli ATCC 25922 is < 1 µg/mL; in the assay with K. pneumoniae ATCC 29665 it was < 1 µg/mL; with P. aeruginosa PAO1, > 16 µg/mL.

Turning to `CCCCC#Cc1ccc(C2=CCN(CCC(C)(C(=O)NO)S(C)(=O)=O)CC2)cc1` (stereo not drawn) [Example 6, 4-(4-(4-(hex-1-yn-1-yl)phenyl)-3,6-dihydropyridin-1(2H)-yl)-N-hydroxy-2-methyl-2-(methylsulfonyl)butanamide], the MIC with E. coli ATCC 25922 was < 1 µg/mL; in the assay on K. pneumoniae ATCC 29665 it was 1 to 8 µg/mL (≈ 2.31 to 18.5 µM); with P. aeruginosa PAO1, 8 to 16 µg/mL (≈ 18.5 to 37 µM).

On to `CC(CCN1CC=C(c2ccc(-c3ccoc3)cc2)CC1)(C(=O)NO)S(C)(=O)=O` (stereo not drawn) [Example 63, 4-(4-(4-(furan-3-yl)phenyl)-3,6-dihydropyridin-1(2H)-yl)-N-hydroxy-2-methyl-2-(methylsulfonyl)butanamide], for which the results for the MIC in the assay with E. coli ATCC 25922, in the assay on K. pneumoniae ATCC 29665 and in the assay with P. aeruginosa PAO1 were < 1 µg/mL, < 1 µg/mL and 8 to 16 µg/mL (≈ 19.1 to 38.2 µM), respectively.

In the case of `CC(CCN1CC=C(c2ccc(C#CCC3CCCCC3)cc2)CC1)(C(=O)NO)S(C)(=O)=O` (stereo not drawn) [Example 12, 4-(4-(4-(3-cyclohexylprop-1-yn-1-yl)phenyl)-3,6-dihydropyridin-1(2H)-yl)-N-hydroxy-2-methyl-2-(methylsulfonyl)butanamide], the results for the MIC in the assay with E. coli ATCC 25922, in the assay with K. pneumoniae ATCC 29665 and with P. aeruginosa PAO1 were 8 to 16 µg/mL (≈ 16.9 to 33.9 µM), 8 to 16 µg/mL (≈ 16.9 to 33.9 µM) and > 16 µg/mL, respectively.

`COCC#CC#Cc1ccc(C2=CCN(CCC(C)(C(=O)NO)S(C)(=O)=O)CC2)cc1` (stereo not drawn) [Example 50, N-hydroxy-4-(4-(4-(5-methoxypenta-1,3-diyn-1-yl)phenyl)-3,6-dihydropyridin-1(2H)-yl)-2-methyl-2-(methylsulfonyl)butanamide]: the MIC in the assay with E. coli ATCC 25922 is < 1 µg/mL; in the assay with K. pneumoniae ATCC 29665, 1 to 8 µg/mL (≈ 2.25 to 18 µM); in the assay on P. aeruginosa PAO1, < 1 µg/mL.

As to `COCC#Cc1ccc(C2=CCN(CCC(C)(C(=O)NO)S(C)(=O)=O)CC2)cn1` (stereo not drawn) [Example 75, N-hydroxy-4-(6-(3-methoxyprop-1-yn-1-yl)-3′,6′-dihydro-[3,4′-bipyridin]-1′(2′H)-yl)-2-methyl-2-(methylsulfonyl)butanamide], the MIC with E. coli ATCC 25922, in the assay on K. pneumoniae ATCC 29665 and with P. aeruginosa PAO1 was > 16 µg/mL in each case.

In the case of `CC(CCN1CC=C(C#CC#CCCCO)CC1)(C(=O)NO)S(C)(=O)=O` (stereo not drawn) [Example 54, N-hydroxy-4-(4-(7-hydroxyhepta-1,3-diyn-1-yl)-3,6-dihydropyridin-1(2H)-yl)-2-methyl-2-(methylsulfonyl)butanamide], the MIC in the assay with E. coli ATCC 25922 is 8 to 16 µg/mL (≈ 20.9 to 41.8 µM); with K. pneumoniae ATCC 29665, > 16 µg/mL; in the assay with P. aeruginosa PAO1, > 16 µg/mL.

Source of the values: patent US10160724B2, “Tetrahydropyridine derivatives and their use as antibacterial agents” (Dong-A St Co., Ltd., priority 2016, dated 2018).
